From publication PMC9861180, “Nintedanib-αVβ6 Integrin Ligand Conjugates Reduce TGFβ-Induced EMT in Human Non-Small Cell Lung Cancer” (International Journal of Molecular Sciences, 2023)
“Also recorded” adds a separate entry of the source.

What was measured:
αvβ6 integrin receptor = test: Expression of αvβ6 integrin by cytofluorimetric analysis; type: cell-based, human
Method: (§1) Expression of αvβ6 integrins was determined by cytofluorimetric analysis. Human NSCLC A549 and H1975 cells, either grown in standard conditions or exposed to TGFβ treatment, were detached from the substrate using Accutase® to minimize the exposure of the extracellular membrane proteins to the enzymatic activity of trypsin. The cells were then incubated with primary antibodies, in the absence of membrane permeabilization. The cytofluorimetric procedures ensured quantification of the αvβ6 integrin receptor protruding outside the cells. […] These percentages increased to 66% of the parental population in A549 cells and to 55% in H1975, when the cells were exposed to TGFβ for 48 h (Figure 2B,D). […] In addition, we evaluated αvβ6 integrin expression on human melanoma cells (SSM2c, Figure S4A) and murine fibroblasts (L929, Figure S5A), whereas expression of the αvβ3 integrin receptor in these cells had been previously evaluated.
A549, L929, and K562 cells were allowed to grow in standard conditions; in several experiments, A549 cells were grown in the presence or in the absence of recombinant human TGFβ (10 ng/mL) (#11343160 Immunotools Friesoythe Germany). […] After extensive washes using cytofluorimetric buffer, cells were analyzed using a BD FACSCanto™ flow cytometry system (BD Bioscience, Eysins, Switzerland).

αvβ3 integrin [1] = test: Expression of αvβ3 integrin by cytofluorimetric analysis; type: cell-based, human
Method: as §1
A549, L929, and K562 cells were allowed to grow in standard conditions; in several experiments, A549 cells were grown in the presence or in the absence of recombinant human TGFβ (10 ng/mL) (#11343160 Immunotools Friesoythe Germany). […] After extensive washes using cytofluorimetric buffer, cells were analyzed using a BD FACSCanto™ flow cytometry system (BD Bioscience, Eysins, Switzerland). […]

A549 cells [2] = test: Inhibition of A549 cell adhesion to fibronectin; type: cell-based, human
Method: (§2) To verify whether conjugates 1–3 were able to bind the integrin receptor efficiently and compete with the receptor’s natural ligand (fibronectin) for the binding site, we performed an inhibition of adhesion assay. In this assay, the biological effects of the three conjugated compounds were compared to the inhibitory ability of the unconjugated ligand 4. Inhibition of A549 and H1975 cell adhesion to fibronectin was determined in both untreated and TGFβ-treated cells. The assay was carried out with increasing concentrations of compounds 1–3 and unconjugated cyclic peptidomimetic 4. […]
(§3) Figure 3 Inhibition of A549 (A,B) and H1975 (C,D) cell adhesion to FN (10 μg/mL) in the presence of compounds 1–3, or c(AmpLRGDL) 4 (2 h). […] The inhibitory activity was calculated as the percentage of cell adhesion to FN in untreated cells and was expressed as mean ± SEM. […]
(§4) 96-well plates were coated with fibronectin (10 µg/mL) (sc-29011 SantaCruz, D.B.A., Milano, Italia) by overnight incubation at 4 °C. […] Next, A549 cells were washed by centrifugation with PBS, counted, and suspended in serum-free medium at 0.6 × 10^6 cells/mL. […] After 2 h of incubation at […], cells were permeabilized with 50 µL of DMSO (C6164, Sigma-Aldrich Merk Life Science S.r.l. Milano, Italy) and plates were examined at 550 nm in a counter BioRad (550 Microplate Reader, BioRad, Milano, Italy). […]

H1975 cells = test: Inhibition of H1975 cell adhesion to fibronectin; type: cell-based, human; conditions: untreated and TGFβ-treated, increasing concentrations
Method: as §2, §3, §4

A549 cells [3] = test: Inhibition of A549 cell adhesion to vitronectin; type: cell-based, human; conditions: A549 cells and TGFβ-treated A549 cells
Method: The highest levels of inhibition in A549 cells were registered with compounds 1 and 2, which were able to inhibit more than 50% adhesion in TGFβ-treated cells even at concentrations of 1 μM, a percentage that raised to 70% when these compounds were tested at 5 μM. […] Moreover, high levels of inhibition were registered in H1975 cells with compounds 1–3 that reached a minimum of 50% inhibition of adhesion in TGFβ-treated cells at 1 μM. These percentages increased to 70% when the compounds were tested at 5 μM. […] As already mentioned, the expression of αvβ3 integrins in A549 cells was reduced after exposure to TGFβ. Since αvβ3 integrins are one of the most avid receptors for vitronectin (VN), we investigated whether compounds 1–4 were able to inhibit A549 cell adhesion to VN. We discovered that, in A549 cells and in TGFβ-treated A549 cells, cell adhesion to vitronectin was not inhibited by the three different conjugated compounds nor by compound 4 (Figure S2E); this lack of efficacy is probably due to the lower binding affinity of the integrin ligand towards the αvβ3 integrin receptors.
2. […]
Figure S2. […] The inhibitory activity was calculated as the percentage of cell adhesion to VN in untreated cells and was expressed as means ± SEM. […]

[4] = test system: α-smooth muscle actin (α-SMA); test: α-smooth muscle actin protein expression, Western blot; type: cell-based, human; conditions: TGFβ-treated A549 cells, 5 μM, 24 h
Method: Data are expressed as means ± SEM of fold increment compared to untreated cells normalized to α-tubulin.
Western blot analysis was performed on whole-cell lysates of A549 cells, exposed for 48 h to TGFβ treatment and subsequently exposed to 5 µM concentrations of different compounds. After 24 h incubation, media were rapidly removed and cell monolayers were lysed as previously described in RIPA lysis buffer, with the addition of proteinase inhibitor cocktail (04693124001 Roche Merk Life Science S.r.l., Milano, Italy) for 30 min in ice [35]. Protein content was quantified, and forty-fifty micrograms of total proteins were separated on Bolt® Bis-Tris Plus gels 4–12% (Life Technologies, Monza, Italy). Fractionated proteins were transferred from the gel to a PVDF nitrocellulose membrane using iBlot 2 system (Life Technologies, Monza, Italy). Membranes were blocked for 5 min at room temperature, with EveryBlot Biorad blocking buffer (Life Technologies, Monza, Italy). […] The protein bands were analyzed by the Odyssey Infrared Imaging System (Lycor Bioscience) using software for protein quantification. […]

[5] = test system: tumor spheroids of TGFβ-treated A549 cells and murine L929 fibroblasts; test: Inhibition of 3D tumor spheroid growth; type: cell-based, human; conditions: 5 µM, 72 h, vs untreated spheroids
Method: Heterogeneous spheroids of tumor cells and fibroblasts were generated using the hanging drop technique to mimic the complex three-dimensional environment of tumor tissues. […] Next, the fluorescence intensities associated with each cell population were analyzed as previously described.
Hanging drop tumor spheroids were prepared starting from 1:1 mixed cell population (1000 cells/25μL) of TGF𝛽-treated A549 cells and murine L929 fibroblasts. […] (C) Quantitative analysis of inhibition of 3D growth and (D) 3D spheroid internalization of the compounds after 72 h exposure. Data are representative of three independent experiments (n = 6) and expressed as means ± SEM. * p < 0.05 vs. untreated spheroids.
A549 cells, exposed for 48 h to TGFβ treatment, were mixed in a 1:1 ratio with murine L929 fibroblast (40,000/mL) in order to obtain 3D multicellular tumor spheroids (MCTS) resembling cellular heterogenicity of the neoplastic lesion. […] After one week, multicellular tumor spheroids were completely formed. Tumor spheroids were next used in different experimental procedures. […] For 3D growth inhibition, spheroids were placed on 2% agarose coated dishes in complete medium containing the different treatments at 5 µM concentration. Spheroid areas were analysed and compared to time 0 and used to evaluate the inhibition of 3D growth (yellow lines). Images of all spheroids were taken daily using the EVOS XL Core Imaging System with a 10x objective (Thermofisher Scientific, Waltham, MA, USA ). All images were analysed using the open-source software ImageJ (1.52a, National Institutes of Health, Bethesda, MD, USA).

[6] = test system: tumor spheroids of TGFβ-treated A549 cells and murine L929 fibroblasts; test: Tumor spheroid 2D flat surface migration and growth; type: cell-based, human; conditions: 5 µM, fibronectin-coated flat surface
Method: Heterogeneous spheroids of tumor cells and fibroblasts were also used to evaluate the ability of the compounds to inhibit 2D flat surface migration and growth once the spheroids were allowed to attach to a suitable surface (Figure 8).
Hanging drop tumor spheroids were allowed to spread on a 2D fibronectin-coated flat surface. […] Data are representative of three independent experiments (n = 6) and expressed as means ± SEM. * p < 0.05 vs. untreated spheroids.
A549 cells, exposed for 48 h to TGFβ treatment, were mixed in a 1:1 ratio with murine L929 fibroblast (40,000/mL) in order to obtain 3D multicellular tumor spheroids (MCTS) resembling cellular heterogenicity of the neoplastic lesion. […] After one week, multicellular tumor spheroids were completely formed. Tumor spheroids were next used in different experimental procedures. We evaluated 2D flat surface inhibition of migration and growth, and the inhibition of 3D growth. For 2D flat surface migration and growth inhibition assays, the spheroids were placed on regular culture dishes and allowed to spread and grow in complete medium containing different compounds at 5 µM concentration. The areas of cell spreading were used as parameters for migration (red lines), while the areas of the spheroid core were used as parameters for 2D growth (yellow lines). For 3D growth inhibition, spheroids were placed on 2% agarose coated dishes in complete medium containing the different treatments at 5 µM concentration. Spheroid areas were analysed and compared to time 0 and used to evaluate the inhibition of 3D growth (yellow lines). Images of all spheroids were taken daily using the EVOS XL Core Imaging System with a 10x objective (Thermofisher Scientific, Waltham, MA, USA ). All images were analysed using the open-source software ImageJ (1.52a, National Institutes of Health, Bethesda, MD, USA).

αvβ6 integrin = test system: αvβ6 integrin; set-up: method as in PMID 32634263; conditions: cited from earlier work
αvβ3 integrin [7] = test system: αvβ3 integrin; set-up: method as in PMID 32634263; conditions: isolated integrin; cited from earlier work
human recombinant VEGFR2 = molecular target: T1, human recombinant VEGFR2 (Homo sapiens, UniProt P35968); test: VEGFR2 tyrosine kinase inhibition, radiometric (Eurofins); type: biochemical; conditions: nine-point concentration-response curve, radiometric detection; read-out: IC50, inhibition of VEGFR2 phosphorylation
T1 construct: purchased Eurofins (Cerep laboratories; KinaseProfiler, IC50 Profiler service)
Method: Inhibition of receptor phosphorylation was measured by a radiometric detection method. IC50 values were determined from a nine-point concentration−response curve generated using the standard assay conditions for the target.

TGFβ-treated A549 cells = test: cells; type: cell-based, human; conditions: 24 h
Method: A549 cell viability was assessed using MTT (3-(4,5-dimethylthiazol-2-yl)-2,5-diphenyltetrazolium bromide) tetrazolium reduction assay (M5655, Sigma Aldrich, Milan, Italy), as described in [58]. Briefly, A549 cells were treated for 48 h in complete medium with TGFβ (10 ng/mL). Next, cells (2.5 × 10^3) were plated into 96-multiwell plates in 100 µL of complete medium. After adhesion, the compounds were added to the medium at different concentrations. After 24 h exposure, the medium was replaced with 100 µL MTT reagent in each well, and plates were incubated at 37 °C. After 2 h, MTT was removed, and the blue MTT–formazan product was solubilized with dimethyl sulfoxide (DMSO, Sigma Aldrich). The absorbance of the formazan solution was read at 595 nm using the microplate reader (Bio-Rad, Milan, Italy). Inhibition of cell proliferation was calculated by the IC50 calculator (AAT Bioquest, Inc., Pleasanton, CA, USA, https://www.aatbio.com/ (accessed on 1 July 2022)).

T1 sequence (P35968 20-1356): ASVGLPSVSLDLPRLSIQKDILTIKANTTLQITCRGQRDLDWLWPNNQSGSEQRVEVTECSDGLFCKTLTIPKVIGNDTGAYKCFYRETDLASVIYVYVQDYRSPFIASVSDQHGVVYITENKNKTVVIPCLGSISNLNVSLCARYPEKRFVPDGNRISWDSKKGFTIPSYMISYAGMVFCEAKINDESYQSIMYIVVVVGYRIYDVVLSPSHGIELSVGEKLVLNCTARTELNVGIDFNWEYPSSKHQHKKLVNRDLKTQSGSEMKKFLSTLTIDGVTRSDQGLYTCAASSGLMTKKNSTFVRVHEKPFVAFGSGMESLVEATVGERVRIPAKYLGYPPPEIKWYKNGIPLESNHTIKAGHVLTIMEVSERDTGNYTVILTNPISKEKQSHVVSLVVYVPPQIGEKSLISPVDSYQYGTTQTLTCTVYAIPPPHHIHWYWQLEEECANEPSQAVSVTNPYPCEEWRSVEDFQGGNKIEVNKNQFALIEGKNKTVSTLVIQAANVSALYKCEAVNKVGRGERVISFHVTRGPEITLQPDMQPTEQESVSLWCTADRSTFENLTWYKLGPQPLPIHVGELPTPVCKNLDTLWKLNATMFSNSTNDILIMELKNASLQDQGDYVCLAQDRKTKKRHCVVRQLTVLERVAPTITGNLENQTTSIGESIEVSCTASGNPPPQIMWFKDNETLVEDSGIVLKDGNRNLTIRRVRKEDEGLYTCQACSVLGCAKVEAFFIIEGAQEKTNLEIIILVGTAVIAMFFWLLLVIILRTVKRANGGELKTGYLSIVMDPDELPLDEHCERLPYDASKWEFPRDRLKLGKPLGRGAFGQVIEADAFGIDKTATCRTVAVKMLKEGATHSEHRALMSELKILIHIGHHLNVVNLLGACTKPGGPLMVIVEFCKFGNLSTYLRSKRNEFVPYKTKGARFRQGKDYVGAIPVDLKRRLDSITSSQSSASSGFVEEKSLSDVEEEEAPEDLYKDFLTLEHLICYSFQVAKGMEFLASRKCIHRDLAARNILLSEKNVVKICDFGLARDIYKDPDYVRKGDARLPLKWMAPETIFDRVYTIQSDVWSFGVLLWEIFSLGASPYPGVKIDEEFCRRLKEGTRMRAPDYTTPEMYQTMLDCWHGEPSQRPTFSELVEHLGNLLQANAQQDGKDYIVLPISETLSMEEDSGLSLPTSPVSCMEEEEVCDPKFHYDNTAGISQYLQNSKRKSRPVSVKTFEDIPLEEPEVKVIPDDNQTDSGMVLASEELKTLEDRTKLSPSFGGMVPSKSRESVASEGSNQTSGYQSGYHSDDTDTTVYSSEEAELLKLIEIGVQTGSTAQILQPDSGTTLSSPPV

TGFβ: recombinant human TGFβ (10 ng/mL) used to induce EMT and αvβ6 expression
cell population expressing αvβ6 integrin receptor (αvβ6 integrin receptor; A549 cells exposed to TGFβ (10 ng/mL) for 48 h): 66%
cell population expressing αvβ6 integrin receptor (αvβ6 integrin receptor; H1975 cells exposed to TGFβ (10 ng/mL) for 48 h): 55%
αvβ3 integrin expression (αvβ3 integrin [1]; A549 cells exposed to TGFβ (10 ng/mL) 48 h, 72% without TGFβ): 32%
αvβ3 integrin expression (αvβ3 integrin [1]; H1975 cells, unaffected by TGFβ treatment): 98%

c(AmpLRGDL) [compound 4]
level of inhibition of cell adhesion to fibronectin (A549 cells [2]; even TGFβ-treated, all concentrations tested): ≤ 50%
inhibition of cell adhesion to fibronectin (in words) (A549 cells [2]; untreated and TGFβ-treated, increasing concentrations): weak concentration dependence
inhibition of cell adhesion to fibronectin (in words) (H1975 cells): weak concentration-dependence
inhibition of cell adhesion to vitronectin (A549 cells [3]): not inhibited
α-SMA protein expression [4]: not able to affect
inhibition of 3D spheroid growth [5]: did not induce a significant reduction; also recorded: transient reduction
2D flat surface migration of tumor spheroids [6]: did not inhibit cell growth and migration; also recorded: considerably weaker effect
2D growth of tumor spheroids (spheroid core) [6]: did not inhibit cell growth and migration; also recorded: very weak inhibition
IC50 (αvβ6 integrin; isolated integrin): 8.3 ± 0.4 nM
selectivity IC50(αvβ3)/IC50(αvβ6) (αvβ6 integrin; isolated integrins): 255
IC50 (αvβ3 integrin [7]): 2120 ± 266 nM

COC(=O)c1ccc2c(c1)NC(=O)/C2=C(\Nc1ccc(N(C)C(=O)CN2CCN(CCCCNC(=O)CCc3cn(CCCCCC(=O)N4C[C@@H]5C[C@H]4C(=O)N[C@@H](CC(C)C)C(=O)N[C@@H](CCCNC(=N)N)C(=O)NCC(=O)N[C@@H](CC(=O)O)C(=O)N[C@@H](CC(C)C)C(=O)N5)nn3)CC2)cc1)c1ccccc1 [compound 1]
IC50 (human recombinant VEGFR2): 6 nM
IC50 (TGFβ-treated A549 cells): 9500 nM

COC(=O)c1ccc2c(c1)NC(=O)/C2=C(\Nc1ccc(N(C)C(=O)CN2CCN(CCOCCOCCOCc3cn(CCCCCC(=O)N4C[C@@H]5C[C@H]4C(=O)N[C@@H](CC(C)C)C(=O)N[C@@H](CCCNC(=N)N)C(=O)NCC(=O)N[C@@H](CC(=O)O)C(=O)N[C@@H](CC(C)C)C(=O)N5)nn3)CC2)cc1)c1ccccc1 [compound 2]
IC50 (TGFβ-treated A549 cells): 10100 nM
